The values that follow come from US12435068B2, “Anthelmintic compounds” (Elanco Animal Health GmBh, priority 2018, dated 2025).

Converted amounts (≈) assume the structure as drawn.

Experiment [1] concerns the target C. elegans Slo-1a (Caenorhabditis elegans, UniProt Q95V25).
Protocol: Cells were cultured at 37° C. and 5% CO2 in MEMalpha with Gutamax I (Invitrogen, Nr.: 32571), supplemented with 10% (v/v) heat inactivated fetal bovine serum (Invitrogen, Nr.: 10500), G418 (1 mg/ml, Invitrogen, Nr.: 10131). Cells were detached using Accutase (Sigma, Nr.: A6964).
Membrane Potential Measurements
Laboratory compound testing was performed on 384-well microtiter plates (MTPs, Greiner, Nr.: 781092). 8000 cells/well were plated onto 384-well MTPs and cultured for 20 to 24 hours at 37° C. and 5% CO2. After removal of the cell culture medium, the cells were washed once with tyrode (150 mM NaCl, 0.3 mM KCl, 2 mM CaCl2, 1 mM MgCl2, 0.8 mM NaH2PO4, 5 mM Glucose, 28 mM Hepes, pH 7.4) and then loaded with the voltage sensitive dye of the Membrane Potential Assay Kit diluted in tyrode for 1 h at room temperature.
After starting the measurement of fluorescence using a FLIPR Tetra (Molecular Devices, Exc. 510-545 nm, Emm. 565-625 nm), test compounds were added followed by the addition of KCl tyrode (final assay concentration: 70 mM KCl, 2 mM CaCl2, 1 mM MgCl2, 0.8 mM NaH2PO4, 5 mM Glucose, 28 mM Hepes, pH 7.4, including the voltage sensitive dye). The measurement was completed after 7 minutes.
The test system of experiment [2] is Dirofilaria immitis larvae. As to the kind of experiment: In Vitro Assay 3: Dirofilaria immitis (DIROIM L4) larval motility. The experiment is classed as cell-based. The settings on record: 72 h, read-out: EC50 ppm.
Experiment [3] has as its system Dirofilaria immitis microfilariae. As to the kind of experiment: In Vitro Assay 2: Dirofilaria immitis microfilariae (DIROIM L1) motility. The experiment is classed as cell-based. The settings on record: 72 h, read-out: EC50 ppm.

Chain of C. elegans Slo-1a (Q95V25 whole entry): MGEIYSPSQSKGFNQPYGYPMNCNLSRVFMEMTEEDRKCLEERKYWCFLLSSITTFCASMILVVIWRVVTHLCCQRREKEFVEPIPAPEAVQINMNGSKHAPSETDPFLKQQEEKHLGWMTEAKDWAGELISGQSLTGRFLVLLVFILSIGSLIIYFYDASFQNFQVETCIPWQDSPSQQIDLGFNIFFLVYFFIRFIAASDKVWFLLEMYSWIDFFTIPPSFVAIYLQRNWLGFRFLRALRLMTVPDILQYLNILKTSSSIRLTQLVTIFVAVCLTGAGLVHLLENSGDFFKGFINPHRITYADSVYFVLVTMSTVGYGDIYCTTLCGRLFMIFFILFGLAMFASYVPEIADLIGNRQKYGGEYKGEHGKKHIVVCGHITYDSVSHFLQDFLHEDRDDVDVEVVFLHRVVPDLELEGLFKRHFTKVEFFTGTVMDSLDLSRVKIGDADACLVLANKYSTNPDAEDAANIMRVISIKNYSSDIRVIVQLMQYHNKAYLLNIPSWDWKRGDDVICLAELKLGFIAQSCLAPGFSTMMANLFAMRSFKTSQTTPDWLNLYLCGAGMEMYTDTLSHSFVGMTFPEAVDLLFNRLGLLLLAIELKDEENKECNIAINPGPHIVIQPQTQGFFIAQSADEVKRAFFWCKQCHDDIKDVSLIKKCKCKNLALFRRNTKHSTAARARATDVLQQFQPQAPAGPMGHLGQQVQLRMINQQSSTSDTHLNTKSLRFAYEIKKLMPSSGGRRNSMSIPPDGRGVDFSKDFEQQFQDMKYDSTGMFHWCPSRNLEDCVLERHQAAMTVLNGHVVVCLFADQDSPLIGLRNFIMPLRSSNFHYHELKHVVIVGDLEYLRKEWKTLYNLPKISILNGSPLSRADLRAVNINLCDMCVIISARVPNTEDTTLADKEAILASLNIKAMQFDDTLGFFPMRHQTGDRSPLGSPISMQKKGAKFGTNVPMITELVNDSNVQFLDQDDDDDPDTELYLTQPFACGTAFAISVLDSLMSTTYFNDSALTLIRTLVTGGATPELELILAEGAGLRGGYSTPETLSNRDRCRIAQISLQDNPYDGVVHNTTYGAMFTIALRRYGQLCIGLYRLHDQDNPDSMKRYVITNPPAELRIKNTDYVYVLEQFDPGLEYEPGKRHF

For orientation: EC50 means the concentration needed to bring the measured effect to its halfway point. For `CC1=C(C(=O)N[C@H]2CCCc3ccccc32)C(C)c2cccc(-c3cc(F)cc(F)c3F)c2O1` (stereo partly drawn) [Example Compound S8b-2, 2,4-Dimethyl-N-[(1S)-1,2,3,4-tetrahydronaphthalen-1-yl]-8-(2,3,5-trifluorophenyl)-4H-chromene-3-carboxamide], the figures for the EC50 in experiment [1], in experiment [2] and in experiment [3] were more than 50100 nM, 1.26 µg/mL (≈ 2.72 µM) and 0.08 µg/mL (≈ 0.173 µM), respectively.
As for `CC(C)C1=C(C(=O)N[C@H]2CCOc3ccccc32)COc2c1cccc2-c1cc(Cl)cc(Cl)c1` [Example Compound S8a-1, 8-(3,5-Dichlorophenyl)-N-[(4S)-3,4-dihydro-2H-chromen-4-yl]-4-(propan-2-yl)-2H-chromene-3-carboxamide], the EC50 in experiment [1] was 3.16 nM; in experiment [2], 0.04 µg/mL (≈ 0.0809 µM); in experiment [3], less than 0.0032 µg/mL.
For `CC(C)n1c(C(=O)N[C@H]2CCOc3ccccc32)cc2c(-c3cc(F)cc(F)c3F)cccc21` [Example Compound S2-6, N-[(4S)-3,4-Dihydro-2H-chromen-4-yl]-1-(propan-2-yl)-4-(2,3,5-trifluorophenyl)-1H-indole-2-carboxamide] the same measures were 15.8 nM, 0.08 µg/mL (≈ 0.172 µM) and 0.0086 µg/mL (≈ 0.0185 µM).
For `CC(C)c1c(C(=O)N[C@H]2CCOc3ccccc32)c(=O)oc2c(-c3cc(Cl)cc(Cl)c3)cccc12` [Example Compound S8a-2, 8-(3,5-Dichlorophenyl)-N-[(4S)-3,4-dihydro-2H-chromen-4-yl]-2-oxo-4-(propan-2-yl)-2H-chromene-3-carboxamide] the same measures were 1.26 nM, 0.18 µg/mL (≈ 0.354 µM) and less than 0.0032 µg/mL.
For `O=C(N[C@H]1CCOc2ccccc21)C1=Cc2cccc(-c3cccc(Cl)c3Cl)c2OC1` [Example Compound S8a-5, 8-(2,3-Dichlorophenyl)-N-[(4S)-3,4-dihydro-2H-chromen-4-yl]-2H-chromene-3-carboxamide] the same measures were 5.01 nM, 0.04 µg/mL (≈ 0.0884 µM) and 0.09 µg/mL (≈ 0.199 µM).
On to `CC(C)c1c(C(=O)N[C@H]2CCOc3ccccc32)sc2c(-c3cccc(Cl)c3Cl)cccc12` [Example Compound S1-3, 7-(2,3-Dichlorophenyl)-N-[(4S)-3,4-dihydro-2H-chromen-4-yl]-3-isopropyl-1-benzothiophene-2-carboxamide], for which the results for the EC50 in experiment [1], in experiment [2] and in experiment [3] were 0.631 nM, 0.03 µg/mL (≈ 0.0604 µM) and 0.01 µg/mL (≈ 0.0201 µM), respectively.
For the compound `COc1c(C(=O)N[C@H]2CCOc3ccccc32)sc2c(-c3cccc(Cl)c3Cl)nccc12` [Example Compound S1-16, 7-(2,3-Dichlorophenyl)-N-[(4S)-3,4-dihydro-2H-chromen-4-yl]-3-methoxythieno[2,3-c]pyridine-2-carboxamide], the EC50 in experiment [1] was 25.1 nM; in experiment [3], 0.18 µg/mL (≈ 0.371 µM).
Consider `COc1c(C(=O)N[C@H]2CCOc3ccccc32)sc2c(-c3cccc(Cl)c3)cccc12` [Example Compound S1-10, 7-(3-Chlorophenyl)-N-[(4S)-3,4-dihydro-2H-chromen-4-yl]-3-methoxy-1-benzothiophene-2-carboxamide], for which the EC50 in experiment [1] is 398 nM; in experiment [3] it was 0.37 µg/mL (≈ 0.822 µM).
For `O=C(N[C@H]1CCOc2ccccc21)c1sc2c(-c3cc(Cl)cc(Cl)c3)ccc(F)c2c1N1CCOCC1` [Example Compound S1-18, 7-(3,5-Dichlorophenyl)-N-[(4S)-3,4-dihydro-2H-chromen-4-yl]-4-fluoro-3-(morpholin-4-yl)-1-benzothiophene-2-carboxamide], in that order: 126 nM and 0.27 µg/mL (≈ 0.484 µM).
For `CN(C)c1c(C(=O)N[C@H]2CCOc3ccccc32)sc2c(-c3cccc(Cl)c3)cccc12` [Example Compound S1-6, 7-(3-Chlorophenyl)-N-[(4S)-3,4-dihydro-2H-chromen-4-yl]-3-(dimethylamino)-1-benzothiophene-2-carboxamide], in that order: 31.6 nM and 0.25 µg/mL (≈ 0.54 µM).
For `CC(C)n1c(C(=O)N[C@H]2CCOc3ccccc32)cc2c(-c3cc(Cl)nc(Cl)c3)cccc21` [Example Compound S2-3, 4-(2,6-Dichloropyridin-4-yl)-N-[(4S)-3,4-dihydro-2H-chromen-4-yl]-1-(propan-2-yl)-1H-indole-2-carboxamide] the same measures were 100 nM and more than 2 µg/mL.
`CC(C)c1c(C(=O)N[C@H]2CCOc3ccccc32)sc2c(-c3ccc(F)c(F)c3)cccc12` [Example Compound S1-4, 7-(3,4-Difluorophenyl)-N-[(4S)-3,4-dihydro-2H-chromen-4-yl]-3-isopropyl-1-benzothiophene-2-carboxamide]: the EC50 in experiment [1] is 50.1 nM; in experiment [3], 0.77 µg/mL (≈ 1.66 µM).
For `CC(C)c1c(C(=O)N[C@H]2CCc3ccccc32)ccc2c1nnn2-c1ccccc1Cl` [Example Compound S4-10, 1-(2-Chlorophenyl)-N-[(1S)-2,3-dihydro-1H-inden-1-yl]-4-(propan-2-yl)-1H-benzotriazole-5-carboxamide] the same measures were 3160 nM and more than 2 µg/mL.
Regarding `COc1c(C(=O)N[C@H]2CCOc3ccccc32)sc2c(-c3cccc(Cl)c3Cl)cccc12` [Example Compound S1-11, 7-(2,3-Dichlorophenyl)-N-[(4S)-3,4-dihydro-2H-chromen-4-yl]-3-methoxy-1-benzothiophene-2-carboxamide], the EC50 was 31.6 nM in experiment [1], more than 0.08 µg/mL in experiment [2] and 0.04 µg/mL (≈ 0.0826 µM) in experiment [3].
Regarding `CC(C)c1c(C(=O)N[C@H]2CCOc3ccccc32)nc2c(-c3cccc(Cl)c3Cl)cccn12` [Example Compound S3-1, 8-(2,3-Dichlorophenyl)-N-[(4S)-3,4-dihydro-2H-chromen-4-yl]-3-(propan-2-yl)imidazo[1,2-a]pyridine-2-carboxamide], the figures for the EC50 in experiment [1] and in experiment [3] were 251 nM and 0.63 µg/mL (≈ 1.31 µM), respectively.
Consider `O=C(N[C@H]1CCOc2ccccc21)c1ccc2nc(-c3cccc(C(F)(F)F)c3Cl)cnc2c1` [Example Compound S9-1, 2-[2-Chloro-3-(trifluoromethyl)phenyl]-N-[(4S)-3,4-dihydro-2H-chromen-4-yl]quinoxaline-6-carboxamide], for which the EC50 was 20 nM in experiment [1] and 0.52 µg/mL (≈ 1.07 µM) in experiment [3].
For `CN(C)c1c(C(=O)N[C@H]2CCOc3ccccc32)ncc2c1ccc(=O)n2Cc1ccc(Cl)cc1` [Example Compound S7-2, 1-(4-Chlorobenzyl)-N-[(4S)-3,4-dihydro-2H-chromen-4-yl]-5-(dimethylamino)-2-oxo-1,2-dihydro 1,7-naphthyridine-6-carboxamide] the same measures were 1000 nM and more than 2 µg/mL.
On to `CC1=C(C(=O)N[C@H]2CCc3ccccc32)C(C)c2cccc(-c3cc(Cl)cc(Cl)c3)c2O1` (stereo partly drawn) [Example Compound S8b-1, 8-(3,5-Dichlorophenyl)-N-[(1S)-2,3-dihydro-1H-inden-1-yl]-2,4-dimethyl-4H-chromene-3-carboxamide], for which the EC50 in experiment [2] was more than 0.4 µg/mL; in experiment [3] it was 1.47 µg/mL (≈ 3.17 µM).
For `CN(C)c1c(C(=O)N[C@H]2CCOc3ccccc32)sc2c(-c3ccc(F)c(F)c3)cccc12` [Example Compound S1-8, 7-(3,4-Difluorophenyl)-N-[(4S)-3,4-dihydro-2H-chromen-4-yl]-3-(dimethylamino)-1-benzothiophene-2-carboxamide], the EC50 in experiment [1] is 3160 nM; in experiment [3], 0.63 µg/mL (≈ 1.36 µM).
For `O=C(N[C@H]1CCOc2ccccc21)c1ccc2nc(-c3cccc(Cl)c3Cl)cnc2c1` [Example Compound S9-4, 2-(2,3-Dichlorophenyl)-N-[(4S)-3,4-dihydro-2H-chromen-4-yl]quinoxaline-6-carboxamide] the same measures were 20 nM and 0.32 µg/mL (≈ 0.711 µM).
For `COc1c(C(=O)N[C@H]2CCOc3ccccc32)sc2c(-c3cc(Cl)cc(Cl)c3)cccc12` [Example Compound S1-9, 7-(3,5-Dichlorophenyl)-N-[(4S)-3,4-dihydro-2H-chromen-4-yl]-3-methoxy-1-benzothiophene-2-carboxamide], in that order: 251 nM and 0.27 µg/mL (≈ 0.557 µM).
For `CN(C)c1c(C(=O)N[C@H]2CCOc3ccccc32)sc2c(-c3cc(Cl)cc(Cl)c3)cccc12` [Example Compound S1-5, 7-(3,5-Dichlorophenyl)-N-[(4S)-3,4-dihydro-2H-chromen-4-yl]-3-(dimethylamino)-1-benzothiophene-2-carboxamide] the same measures were 25.1 nM and 0.25 µg/mL (≈ 0.503 µM).
Take `O=C(N[C@H]1CCOc2ccccc21)c1cnc2c(cnn2-c2c(F)cccc2F)c1Cl` [Example Compound S4-1, 4-Chloro-1-(2,6-difluorophenyl)-N-[(4S)-3,4-dihydro-2H-chromen-4-yl]-1H-pyrazolo[3,4-b]pyridine-5-carboxamide]: the values for the EC50 in experiment [1] and in experiment [3] were 1120 nM and 0.41 µg/mL (≈ 0.93 µM), respectively.
For `COc1c(C(=O)N[C@H]2CCOc3ccccc32)sc2c(-c3cc(Cl)cc(Cl)c3)nccc12` [Example Compound S1-14, 7-(3,5-Dichlorophenyl)-N-[(4S)-3,4-dihydro-2H-chromen-4-yl]-3-methoxythieno[2,3-c]pyridine-2-carboxamide], in that order: 794 nM and 2 µg/mL (≈ 4.12 µM).
For `CN(C)c1c(C(=O)N[C@H]2CCOc3ccccc32)sc2c(-c3cccc(Cl)c3Cl)cccc12` [Example Compound S1-7, 7-(2,3-Dichlorophenyl)-N-[(4S)-3,4-dihydro-2H-chromen-4-yl]-3-(dimethylamino)-1-benzothiophene-2-carboxamide] the same measures were 10 nM and 0.11 µg/mL (≈ 0.221 µM).
Regarding `CC(C)c1c(C(=O)N[C@H]2CCOc3ccccc32)sc2c(-c3cccc(Cl)c3)cccc12` [Example Compound S1-2, 7-(3-Chlorophenyl)-N-[(4S)-3,4-dihydro-2H-chromen-4-yl]-3-isopropyl-1-benzothiophene-2-carboxamide], the values for the EC50 in experiment [1], in experiment [2] and in experiment [3] were 3.98 nM, more than 0.08 µg/mL and 0.03 µg/mL (≈ 0.0649 µM), respectively.
Turning to `COc1c(C(=O)N[C@H]2CCOc3ccccc32)sc2c(-c3cccc(Cl)c3)nccc12` [Example Compound S1-15, 7-(3-Chlorophenyl)-N-[(4S)-3,4-dihydro-2H-chromen-4-yl]-3-methoxythieno[2,3-c]pyridine-2-carboxamide], the EC50 in experiment [1] was 794 nM; in experiment [3] it was more than 2 µg/mL.
